# Measured values as given in PMC11729550, “Discovery of indole analogue Tc3 as a potent pyroptosis inducer and identification of its combination strategy against hepatic carcinoma” (Theranostics, 2025).
# Experiments:
# [1] = Pharmacokinetic study of vein administration; format: in vivo; conditions: Balb/c mice, intravenous 10 mg/kg
# Procedure: Chromatographic conditions employed an ultimate AQ-C18 column (2.1 mm × 50 mm, 5.0 μm) and its temperature was set to 40℃. The mobile phase consisted of methanol and 0.1% formic acid, with a gradient elution program: 0-0.01 min, methanol 15%, 0.01-2 min, methanol 95%, 2-3 min, methanol 15%. The flow rate was set to 0.6 mL/min, the elution time was 3 min and ESI-MS in negative mode MRM was used for quantitative analysis. Masslynx 4.1 software was used for data acquisition and instrument control.
# Stock solutions of Tc3 (1.0 mg/mL) and JBHDN (0.1 mg/mL) were prepared in methanol. A series of working solutions (5, 20, 100, 200, 800, 1000 and 2000 ng/mL) were added into blank mouse blood to prepare the standard curves. The JBHDN stock solution was diluted with 5% trichloroacetic acid-methanol to 100 ng/mL. In the same manner as the standard curve, quality control (QC) samples at 10 ng/mL, 450 ng/mL, and 1500 ng/mL were prepared. Next, Balb/c mice were administered intravenously (10 mg/kg). After 5 min, 15 min, 30 min, 1 h, 2 h, 4 h, 8 h, and 24 h, blood samples (20 μL) were collected from the tail vein of mice and mixed with internal standard JBHDN (100 ng/mL). The mixtures were then vortexed for 10 min at 4℃ and centrifuged at 5500 g for 10 min. The supernatant was mixed with 200 μL ultrapure water, and then injected into liquid chromatography-tandem mass spectrometry (LC-MS/MS) system for analysis.
# [2] = tested on: AML-12 cells; experiment: Flow cytometry of propidium iodide and annexin V-FITC staining; format: cell-based, mouse
# Excerpt: Figure 2 Cytotoxic effect of Tc3 on human hepatic carcinoma cells in vitro. […] (B-C) Cell viability rates of HepG2 (B) and SK-Hep1 (C) cells treated with Tb7, Tc1, Tc3, Tc4 and other clinical chemotherapy drugs. (D-F) Flow cytometry of propidium iodide and annexin V-fluorescein isothiocyanate (FITC)-stained HepG2 cells (D). Statistical analysis of the early apoptotic cells (E) and late apoptotic cells (F). (G-I) Flow cytometry of propidium iodide and annexin V-fluorescein isothiocyanate (FITC)-stained AML-12 cells (G). Statistical analysis of the early apoptotic cells (H) and late apoptotic cells (I). Data are presented as mean ± SD of three independent biological experiments. *p < 0.05, **p < 0.01, ***p < 0.001 and ****p < 0.0001, ns, no significant.
# [3] = tested on: HepG2 cells; experiment: Anti-tumor activity assay (IC50 value), cells counted after three days;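 further: HepG2 cells exposed to a drug concentration series for 3 days, then counted with a hemocytometer, inhibition relative to untreated control cell number, IC50 obtained by curve fitting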
# Procedure: For half maximal inhibitory concentrations (IC50) analysis, the hepatic carcinoma cells (HepG2, SK-Hep1 and PLC-PRF5) were seeded in 24-well plates respectively, then treated with drugs at concentration gradient for three days. The cells were counted with hemocytometer. […] A is the cell quantity of the control group and B is the cell quantity of the drug treated group. The cell inhibition rate was transformed using its logarithm. And the drug IC50 value were calculated by Graphpad Prsim 9 software with curve fitting of the drug concentration and log (cell inhibition rate).
# [4] = tested on: pLKO.1 HepG2 cells; experiment: Dose-response growth inhibition, control knockdown cells; format: cell-based; conditions: Homo sapiens
# Procedure: (§1) The cells were counted with hemocytometer.
# (§2) Briefly, the pLKO.1 or shRNA plasmids with psPAX2 and PMD2.G were transfected into HEK-293T cells via DNA transfection reagent (SignaGen®Laboratories, SL100688). And the cell supernatant contained Lenti-virus was collected after 24 hours. The Lenti-virus of shRNAs were used to infect the hepatic carcinoma cells and the stable-transfection cell lines were screened by puromycin (1 μg/mL) (Solarbio, P8230).
# [5] = tested on: shDFNA5 HepG2 cells; experiment: Dose-response growth inhibition, GSDME knockdown cells; format: cell-based; conditions: Homo sapiens
# Procedure: as §1, §2
# [6] = Hydrolytic stability in phosphate buffer (HPLC); format: physicochemical; conditions: phosphate buffer of PH 7.4 over 150 minutes
# Procedure: The stability of Tc3 was evaluated by an UltiMate 3000 Dual-Gradient HPLC system (Sunnyvale, CA, USA). The samples of solution were chromatographed on ZORBAX Eclipse XDB-C18 column(5 µm, 4.6 × 150 mm, Agela Technologies), using an eluent composed of: water (95%) and acetonitrile (5%) at a flow rate of 1.0 mL/min. […] The hydrolysis of Tc3 was carried out in a phosphate buffer of PH 7.4 (50 ug/ml, initial concentration of 5 mM in methanol) over 150 minutes.
# [7] = tested on: GSDME; experiment: Western blot of GSDME activation; format: cell-based, human; conditions: HepG2 and SK-Hep1 cells
# Procedure: The whole-cell protein was extracted by RIPA lysis buffer contained with protease and phosphatase inhibitor cocktail (MCE, HY-K0010) from cells treated by indole analogues. Proteins were separated by sodium dodecyl sulfate-polyacrylamide gel electrophoresis (SDS-PAGE) gel, and then blotted onto polyvinylidene difluoride membrane (Millipore, IPVH00010). The membranes were incubated with the primary antibodies and the following horseradish peroxidase-conjugated (HRP) secondary antibodies. Next, membranes were washed and developed by ECL regent (Millipore, WBKLS0500).
# [8] = tested on: hepatocarcinoma PDXs; experiment: Hepatocarcinoma PDXs treatment; format: in vivo, Balb/c nude mice; conditions: 20 mg/kg and 40 mg/kg i.p. ten times, day 20
# Excerpt: (§3) Balb/c nude mice (female, 6-week-old) were subcutaneously injected with 2 × 10^6 HepG2 cells on the left and right flanks to construct cell-derived xenografts (CDXs). The patient-derived xenografts (PDXs) samples were gifts from Dr Changliang Shan of Nankai University. C57 BL/6N mice (female, 5-week-old) were subcutaneously injected with 2 × 10^6 Hepa1-6 cells mixed with matrigel (ABW, 0827265) on the left and right flanks. The mice were inoculated with hepatic carcinoma CDXs or PDXs for at least four days, and treated (i.p.) by vehicle and Tc3. […] Tumor volume = 4π/3 × (Length/2) × (Width/2)^2. All animal experiments were carried out in accordance with the recommendations of Requirements of the Ethical Review System of Biomedical Research Involving Human by National Health and Family Planning Commission of China and Nankai University Ethics Committee with written informed consent complying with the Declaration of Helsinki (IAEC ID: 2023-STDWLL-000249).
# [9] = tested on: AML-12 cells; experiment: Dose-response growth inhibition of liver parenchymal cells; format: cell-based; conditions: AML12; mouse liver parenchymal cells
# Excerpt: as §1
# (E) Dose-response curves for Tc3 inhibiting the growth of AML-12 cells.
# [10] = tested on: HepG2 CDXs; experiment: HepG2 CDXs treatment; format: in vivo, Balb/c nude mice; conditions: 20 mg/kg and 40 mg/kg i.p. five times
# Excerpt: as §3
compound,measurement,setting,value
CC(C)[C@H](N)C(=O)NCCCn1cc(/C=C2\S/C(=N\c3ccc(N4CCOCC4)cc3)N(Cc3ccc(F)cc3)C2=O)c2ccccc21 [Tc3],plasma drug concentration,[1]; 5 min-24 h,12.4 to 1417.0 ng/mL
same,AUC(0-t),"[1]; mouse, whole blood",1520 ng·h/mL
same,half-life,"[1]; mouse, whole blood, read-out: half-life elimination t1/2 (converted)",485 min
same,cell death by annexin V / propidium iodide flow cytometry,[2],not observed
same,fold increase in cellular potency,"[3]; HepG2, compared to T1",~12 fold
same,IC50,"[3]; Homo sapiens, HepG2, 72 h, read-out: IC50 HepG2",1370 nM
same,IC50,[4],2220 nM
same,IC50,[5],4.77 µM
same,stability to hydrolysis,[6],no changes
same,GSDME activation / cleavage (western blotting),[7],promoted the cleavage of GSDME
same,tumor size and weight of PDXs,[8],significantly reduced the tumor size and weight
same,IC50,[9],6.14 µM
same,growth rate and weight of HepG2 CDX tumors,[10],significantly smaller
